Key:
[1] = tested on: OSE (normal ovarian surface epithelial cells); experiment: Cell viability, CellTiter 96 assay, normal cells; assay type: cell-based, Human; details: concentrations up to 10 μg/ml, 24 hr exposure
Method: FIG. 1. Comparative cytotoxicity of dehydroequol and Compound I as described herein (Cpd 1) against normal and ovarian cancer cells: CP70 (cell line), R179, R182, R585 (primary ovarian cancer explants) and OSE (normal ovarian surface epithelial cells). […] Both compounds were tested at concentrations up to 10 μg/ml and exposed to cells for 24 hr.
Human EOC cell lines A2780, CP70, and OSE were propagated in RPMI plus 10% fetal bovine serum (FBS) (Gemini Bio-Products, Woodland, Calif.) at 37° C. in a 5% CO2 atmosphere. Primary EOC cells (R179, R182, R585) were isolated from malignant ovarian ascites and cultured as previously described (Kamsteeg et al., 2003). Dehydroequol and Compound 1 (Cpd 1) were obtained from Novogen (Australia). All other reagents were purchased from Sigma Chemical (St. Louis, Mo.). The pan caspase inhibitor Z-VAD-FMK was obtained from R&D Systems (Minneapolis, Minn.).
Cell viability was evaluated using the CellTiter 96 Aqueous One Solution Cell Proliferation Assay (Promega, Madison, Wis.) according to the manufacturer's instructions. The values from the treated cells were compared with the values generated from the untreated cells and reported as percent viability. Each experiment was performed in triplicate.

R182 cells = experiment: Phase-contrast microscopy, vacuole formation; assay type: cell-based, Human; details: 5 μg/ml over 4 hr and 8 hr
Method: FIG. 6. Phase-contrast images of R182 cells treated with vehicle (NT) or 5 μg/ml Cpd 1 over 4 hr and 8 hr (A).
R182 cells treated with Cpd 1 were observed microscopically to determine if morphological and structural alterations to cellular integrity took place. Cells treated with Cpd 1 were hyper-vacuolated (see FIG. 6) and the plasma membrane appeared to bleb or form folds. […] These morphological changes observed in Cpd 1 treated cells are considered the hall mark of autophagy with the increased vacuoles formation thought to result in autophagosomes which eventually fuse with lysosomes to form autolysosomes. These structures contain catabolic hydrolases which are released into the cytoplasm when the lysosomal membrane becomes compromised.

LC3-II = experiment: Western blot of R-182 cytoplasmic preparations, LC3-II; assay type: cell-based, Human; details: R-182 cells, 5 μg/ml over 24 hr
Source text: (§1) FIG. 8. Molecular evidence of autophagic cell death in R-182 ovarian cancer cells induced by Cpd 1. […] B, Beclin 1 binds to Bcl-2. Immunoprecipitation study using mitochondrial preparations of cells pre-treated with Cpd 1 as stated in A, and subjected to beclin 1 immunoprecitation. Immunoprecipitated fractions were washed in PBS, subjected to SDS-PAGE, blotted and then probed with a mouse anti-Bcl-2 antibody. Actin and Topo-1 were used as loading control. C, Depolarized cells resulting from over-expression of Bax and Beclin 1 following administration of Cpd 1. Cells were treated with Cpd 1 as described in A, pelleted and washed in HBSS and the cell pellet resuspended in the reaction buffer for JC-1 (Biovision, Inc. MitoCapture™ K250-100). HBSS-washed cells were analysed by flow cytometry (λexcit=488 nm and (λemit=530 nm for green fluorescence (depolarized) or 590 nm for red fluorescence (polarized). 10,000 gated events were measured with a BD FACScalibur. Results were expressed as mean±standard deviation (n=3).
(§2) After treatment with Cpd 1, protein was extracted from cells and measured as previously described (Kamsteeg et al., 2003). For separation of the cytoplasmic and mitochondrial fractions, cell pellets were processed using the ApoAlert Cell Fractionation kit (Promega) according to the manufacturer's instructions. […]

Bax = experiment: Western blot of R-182 mitochondrial extracts, Bax; assay type: cell-based, Human; details: R-182 cells, 5 μg/ml over 24 hr
Source text: as §1, §2

XIAP = experiment: Western blot of R-182 cells, XIAP; assay type: cell-based, Human; details: 5 μg/ml over 24 hr
Source text: as §1, §2

[2] = tested on: chemoresistant epithelial ovarian cancer (EOC) xenografts; experiment: EOC xenograft in SCID mice, tumour growth; assay type: in vivo; details: increasing doses, intraperitoneal injection; data not shown
Method: In vivo studies using tumour-bearing mice were conducted to further confirm that Cpd 1 induces programmed cell death via an autophagic process. SCID mice bearing chemoresistant epithelial ovarian cancer (EOC) xenografts derived from a primary cell culture of a patient's ascites were administered with increasing doses of Cpd 1 by intraperotineal injection resulting in reductions in both tumor volume and tumor weight (data not shown). Representative tumours excised from these mice and tumour-bearing mice administered vehicle control were then fixed, sectioned and subjected to immunohistopathology analysis using an α-enodonuclease G directed monoclonal antibody. Tumor samples were blocked with either 10% horse or goat serum in PBS for 1 hour at room temperature. Following three washes with PBS, samples were incubated overnight at 4° C. with either the anti-EndoG (LifeSpan Bioscience) antibody or mouse IgG1 isotype as negative controls. After three washes with PBS, specific staining was detected by incubating with a peroxidase-conjugated horse anti-mouse antibody (1:1000 dilution) for 1 hour followed by a five-minute incubation with DAB substrate (Vector Laboratories). Tissue sections were then counterstained with haematoxylin (Sigma Chemical Co.) before dehydration with ethanol and Histosolve (Shandon Inc., Pittsburgh, Pa.). […]

SMILES: COc1ccc([C@H]2c3ccc(O)c(C)c3OC[C@H]2c2ccc(O)cc2)cc1 (stereo in doubt) [Cpd 1, 3-(4-hydroxyphenyl)-4-(4-methoxyphenyl)-8-methylchroman-7-ol]
- toxicity against normal OSE cells [1]: some toxicity
- vacuole formation (R182 cells): vacuole formation is clearly evident
- LC3-II expression (LC3-II): increased over time
- expression of Bax in mitochondrial extracts (Bax): markedly upregulated over time
- XIAP expression (XIAP): remains unchanged
- tumor volume [2]: reductions
- tumor weight [2]: reductions

— patent US20100173983A1, “METHOD FOR INDUCING AUTOPHAGY” (priority 2007, published 2010)
